Results on ten compounds are retold here after PubChem BioAssay (NCI).

Where “and” joins values, the source holds several entries; their conditions need not be identical. Identical values can stand only once.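 These data come from cells grown in 96-well plates and exposed to compound for 48 hours at five concentrations. GI50: concentration for 50% inhibition of growth. TGI: total growth inhibition.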

Test systems include HCT-116 colon; MALME-3M melanoma; NCI-H23 lung; PC-3 prostate; SF-539 CNS; SK-MEL-2 melanoma; SK-MEL-28 melanoma; SK-MEL-5 melanoma; HS 578T breast; SR leukemia.
Common to all, as to experiment: NCI anticancer screen, dose series, 48 h

In the case of `Nc1ccccc1-n1c2c(c3ccccc3c1=O)C(=O)c1ccccc1-2`, the TGI in the test on HCT-116 colon was over 100 µM; with MALME-3M melanoma, 85.5 µM; in the test with NCI-H23 lung, 51.1 µM; in the test with PC-3 prostate it was 97.4 µM; in the test on SF-539 CNS it was 26.8 µM; in the test on SK-MEL-2 melanoma it was 52.8 µM. The TGI in the test on SK-MEL-28 melanoma and with SK-MEL-5 melanoma was over 100 µM each time.
Consider `O=C(/C=C/c1cc(O)ccc1O)c1ccc(Cl)cc1`, for which the GI50 in the test on HCT-116 colon is 16700 nM; in the test on NCI-H23 lung it was 19100 nM; in the test with PC-3 prostate it was 90400 nM; with SK-MEL-2 melanoma, 60700 nM; with SK-MEL-28 melanoma, 60400 nM; in the test on SK-MEL-5 melanoma it was 55000 nM. The TGI is 41.6 µM in the test with HCT-116 colon; 43.3 µM with NCI-H23 lung; over 100 µM with PC-3 prostate; over 100 µM with SK-MEL-2 melanoma; over 100 µM with SK-MEL-28 melanoma; over 100 µM in the test on SK-MEL-5 melanoma.
`C=CC(=O)N1CCC(CNc2ncnc(N)c2-c2ccc(Oc3ccccc3)cc2)CC1`: the GI50 in the test with HCT-116 colon is 30100 nM; in the test with HS 578T breast it was 24000 nM; in the test on MALME-3M melanoma it was 23.9 µM; with NCI-H23 lung, 29800 nM; in the test on PC-3 prostate, 24900 nM; in the test with SF-539 CNS, 20600 nM. Besides, the GI50 with SK-MEL-2 melanoma is 19300 nM; in the test on SK-MEL-28 melanoma it was 34400 nM; with SK-MEL-5 melanoma it was 14300 nM. Moreover, the TGI in the test on HCT-116 colon was over 100 µM; in the test on HS 578T breast, 95.2 µM; in the test on MALME-3M melanoma, 67 µM; in the test with NCI-H23 lung it was over 100 µM; in the test on PC-3 prostate it was over 100 µM; in the test with SF-539 CNS, 71 µM. The TGI was 42 µM with SK-MEL-2 melanoma, over 100 µM in the test on SK-MEL-28 melanoma and 27.6 µM in the test with SK-MEL-5 melanoma.
Consider `CSc1ccc(NC(=O)CCl)cc1`, for which the TGI was over 10 µM in the test with HCT-116 colon; over 10 µM with HS 578T breast; over 10 µM in the test with NCI-H23 lung; over 10 µM in the test on PC-3 prostate; over 10 µM in the test with SF-539 CNS; 5.1 µM with SK-MEL-2 melanoma. For the same compound, the TGI is over 10 µM in the test with SK-MEL-28 melanoma, 3.63 µM with SK-MEL-5 melanoma and over 10 µM in the test with SR leukemia.
As for `O=C(Cc1ccc(-c2ccc(OCCN3CCOCC3)cc2)cn1)NCc1ccccc1`, the GI50 is 37.3 nM and 39.9 nM with HCT-116 colon; 38.1 nM and 28.4 nM in the test with HS 578T breast; 0.15 µM in the test on MALME-3M melanoma; 45.8 nM and 49.3 nM in the test on NCI-H23 lung; 44.6 nM and 45.6 nM in the test with PC-3 prostate; 28.3 nM and 30.1 nM in the test on SF-539 CNS. The GI50 was 105 nM and 60 nM with SK-MEL-2 melanoma; 46.2 nM and 211 nM in the test with SK-MEL-28 melanoma; 28.6 nM and 39.9 nM with SK-MEL-5 melanoma. For the same compound, the TGI with HCT-116 colon, with HS 578T breast, in the test with MALME-3M melanoma, with NCI-H23 lung, with PC-3 prostate and in the test with SK-MEL-2 melanoma was over 100 µM throughout. The TGI with SK-MEL-28 melanoma is over 100 µM; with SK-MEL-5 melanoma, 0.22 µM and 1.25 µM.
Regarding `O=C1Nc2cc(-c3ccc(O)cc3)ccc2/C1=C/c1ccc[nH]1`, the GI50 in the test with HCT-116 colon is 115 nM; in the test on MALME-3M melanoma, 0.474 µM; in the test on NCI-H23 lung, 85.9 nM; in the test on PC-3 prostate, 416 nM; in the test on SF-539 CNS, 246 nM; in the test with SK-MEL-2 melanoma it was 647 nM. In addition, the GI50 with SK-MEL-28 melanoma was 402 nM; in the test with SK-MEL-5 melanoma, 412 nM; in the test with SR leukemia it was 30.9 nM. Moreover, the TGI was over 100 µM in the test on HCT-116 colon; 5.28 µM in the test on MALME-3M melanoma; 2.81 µM with NCI-H23 lung; over 25.8 µM in the test on PC-3 prostate; 1.53 µM in the test with SF-539 CNS; over 25.7 µM in the test on SK-MEL-2 melanoma. Moreover, the values for the TGI in the test with SK-MEL-28 melanoma, in the test on SK-MEL-5 melanoma and with SR leukemia were over 100 µM, over 100 µM and over 33.7 µM, respectively.
Consider `CCSc1nnc(-c2ccc3ccccc3c2O)n1-c1ccccc1`, for which the GI50 in the test with HS 578T breast was over 100000 nM; in the test with MALME-3M melanoma, 69.7 µM; in the test with NCI-H23 lung, over 100000 nM; in the test on SF-539 CNS it was over 100000 nM; in the test on SK-MEL-28 melanoma, over 100000 nM. Also, the TGI with HS 578T breast, in the test with MALME-3M melanoma, with NCI-H23 lung, with SF-539 CNS and in the test on SK-MEL-28 melanoma was over 100 µM each time.
Consider `COc1ccc2cn3c4ccc(O)cc4[nH]c(=O)c3c2c1`, for which the GI50 is 46 nM in the test on HCT-116 colon; 249 nM in the test with HS 578T breast; 402 nM with NCI-H23 lung; 131 nM with PC-3 prostate; 104 nM with SF-539 CNS; 60.2 nM in the test with SK-MEL-2 melanoma. The figures for the GI50 in the test with SK-MEL-28 melanoma, with SK-MEL-5 melanoma and in the test with SR leukemia were 74.2 nM, 25.7 nM and 55.6 nM, respectively. Moreover, the TGI was 1.95 µM in the test with HCT-116 colon; 31.6 µM in the test with HS 578T breast; 15.7 µM in the test on NCI-H23 lung; 16.9 µM with PC-3 prostate; 12.5 µM in the test with SF-539 CNS; 12.8 µM in the test on SK-MEL-2 melanoma. The TGI in the test with SK-MEL-28 melanoma is 17.3 µM; in the test on SK-MEL-5 melanoma, 3.45 µM; with SR leukemia, 3.87 µM.
On to `CN1CCC(n2cnc(-c3ccc(F)cc3)c2-c2ccnc(Nc3ccccc3)n2)CC1`, for which the GI50 in the test on HCT-116 colon was 7270 nM; with HS 578T breast, 11500 nM; in the test with MALME-3M melanoma, 4.77 µM; with NCI-H23 lung, 16300 nM; in the test on PC-3 prostate, 12200 nM; in the test with SF-539 CNS it was 13200 nM. The GI50 is 11300 nM in the test with SK-MEL-2 melanoma, 5190 nM in the test on SK-MEL-28 melanoma and 4140 nM with SK-MEL-5 melanoma. Besides, the TGI is over 25 µM in the test on HCT-116 colon; over 25 µM in the test on HS 578T breast; 12.4 µM in the test on MALME-3M melanoma; over 25 µM with NCI-H23 lung; over 25 µM in the test on PC-3 prostate; over 25 µM with SF-539 CNS. Further, the figures for the TGI with SK-MEL-2 melanoma, with SK-MEL-28 melanoma and in the test on SK-MEL-5 melanoma were over 25 µM, 11 µM and 9.43 µM, respectively.
As for `Cc1cccc(/C=N/N=C(\N)NO)n1`, the TGI in the test on HCT-116 colon, with MALME-3M melanoma, in the test on NCI-H23 lung, in the test with SF-539 CNS, with SK-MEL-2 melanoma and in the test with SK-MEL-28 melanoma was over 100 µM each time. Further, the TGI in the test with SK-MEL-5 melanoma and in the test on SR leukemia was over 100 µM throughout.
